From patent US8809350B2, “Purine and pyrimidine CDK inhibitors and their use for the treatment of autoimmune diseases” (priority 2004, dated 2014)
“Also recorded” adds a separate entry of the source. Read-outs that look alike come from different tables or passages of the source.

What was measured:
[1] = target: CDK7/cyclin H (Homo sapiens, UniProt P50613); test: CDK 7 and 9 assay (CTD peptide substrate); format: biochemical; details: in-house kinase assays; read-out: Average IC50 CDK7H
Protocol: (§1) Kinase activity was investigated by measuring the incorporation of radioactive phosphate from ATP into appropriate polypeptide substrates. Recombinant protein kinases and kinase complexes were produced or obtained commercially. Assays were performed using 96-well plates and appropriate assay buffers (typically 25 mM β-glycerophosphate, 20 mM MOPS, 5 mM EGTA, 1 mM DTT, 1 mM […], pH 7.4), into which were added 2-4 μg of active enzyme with appropriate substrates. The reactions were initiated by addition of Mg/ATP mix (15 mM MgCl2+100 μM ATP with 30-50 kBq per well of [γ-^32P]-ATP) and mixtures incubated as required at 30° C. Reactions were stopped on ice, followed by filtration through p81 filterplates or GF/C filterplates (Whatman Polyfiltronics, Kent, UK). After washing 3 times with 75 mM aq orthophosphoric acid, plates were dried, scintillant added and incorporated radioactivity measured in a scintillation counter (TopCount, Packard Instruments, Pangbourne, Berks, UK). Compounds for kinase assay were made up as 10 mM stocks in DMSO and diluted into 10% DMSO in assay buffer.
(§2) The reaction was stopped by placing the plate on ice for 2 min. Avidin (50 μg) was added to each well, and the plate was incubated at room temp for 30 min. The samples were transferred to a 96-well P81 filter plate, and washed (4×200 μL per well) with 75 mM phosphoric acid. Microscint 40 scintillation liquid (50 μL) was added to each well, and the amount of ^32P incorporation for each sample was measured using a Packard Topcount microplate scintillation counter.

[2] = tested on: HCT116 cells; details: cited from earlier work
[3] = tested on: tumour cell panels; test: In-house 72 hour cytotoxicity assays on tumour cell panels; format: cell-based
[4] = target: CDK1B (Homo sapiens, UniProt P06493); test: In-house kinase assay (32P incorporation); format: biochemical; details: in-house kinase assays
Chain of CDK1B (P06493 whole entry): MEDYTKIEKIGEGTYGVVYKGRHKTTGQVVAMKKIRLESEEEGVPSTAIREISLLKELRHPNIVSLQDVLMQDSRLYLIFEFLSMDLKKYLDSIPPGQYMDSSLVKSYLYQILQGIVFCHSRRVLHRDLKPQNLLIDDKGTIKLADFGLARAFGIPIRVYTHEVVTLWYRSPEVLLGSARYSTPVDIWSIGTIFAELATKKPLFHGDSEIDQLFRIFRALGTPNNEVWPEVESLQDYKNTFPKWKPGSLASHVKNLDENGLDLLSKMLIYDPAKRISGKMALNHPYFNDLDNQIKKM
Chain of CDK1B (P14635 whole entry partner): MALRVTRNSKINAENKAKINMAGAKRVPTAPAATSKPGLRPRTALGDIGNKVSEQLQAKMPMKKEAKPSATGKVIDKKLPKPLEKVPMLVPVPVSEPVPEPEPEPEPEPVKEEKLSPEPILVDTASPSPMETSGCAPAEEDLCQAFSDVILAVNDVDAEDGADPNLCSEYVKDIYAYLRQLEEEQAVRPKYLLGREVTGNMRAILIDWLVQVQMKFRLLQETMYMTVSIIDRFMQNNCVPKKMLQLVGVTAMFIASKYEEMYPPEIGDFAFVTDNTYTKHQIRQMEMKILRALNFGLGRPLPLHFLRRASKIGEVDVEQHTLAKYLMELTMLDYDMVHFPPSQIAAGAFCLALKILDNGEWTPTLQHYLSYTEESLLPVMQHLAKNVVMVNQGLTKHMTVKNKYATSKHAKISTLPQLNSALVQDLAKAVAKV
Protocol: as §1

[5] = target: T1, AurA (Homo sapiens, UniProt O14965); test: In-house kinase assay (32P incorporation); format: biochemical; details: in-house kinase assays
T1 sequence (O14965 1-403): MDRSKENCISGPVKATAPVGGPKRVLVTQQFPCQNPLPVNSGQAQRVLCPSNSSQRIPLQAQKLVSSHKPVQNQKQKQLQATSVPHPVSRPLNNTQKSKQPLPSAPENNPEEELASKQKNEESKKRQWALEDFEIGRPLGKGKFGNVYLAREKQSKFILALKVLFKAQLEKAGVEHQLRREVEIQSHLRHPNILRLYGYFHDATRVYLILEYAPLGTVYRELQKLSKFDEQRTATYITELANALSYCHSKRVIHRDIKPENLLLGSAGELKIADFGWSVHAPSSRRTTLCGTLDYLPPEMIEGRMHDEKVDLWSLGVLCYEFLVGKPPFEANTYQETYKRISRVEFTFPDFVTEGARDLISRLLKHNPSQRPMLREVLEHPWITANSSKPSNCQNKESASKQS
Protocol: as §1

[6] = target: CDK6D3 (Homo sapiens, UniProt Q00534); test: In-house kinase assay (32P incorporation); format: biochemical; details: in-house kinase assays
Chain of CDK6D3 (Q00534 whole entry): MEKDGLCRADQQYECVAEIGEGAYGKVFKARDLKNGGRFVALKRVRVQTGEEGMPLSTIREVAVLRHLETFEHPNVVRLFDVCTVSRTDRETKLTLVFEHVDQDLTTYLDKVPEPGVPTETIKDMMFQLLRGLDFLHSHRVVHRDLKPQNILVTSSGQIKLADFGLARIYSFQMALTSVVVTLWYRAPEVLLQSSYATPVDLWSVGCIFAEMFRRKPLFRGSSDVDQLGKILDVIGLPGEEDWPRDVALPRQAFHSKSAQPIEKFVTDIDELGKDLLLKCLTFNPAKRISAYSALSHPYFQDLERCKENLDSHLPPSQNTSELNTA
Chain of CDK6D3 (P30281 whole entry partner): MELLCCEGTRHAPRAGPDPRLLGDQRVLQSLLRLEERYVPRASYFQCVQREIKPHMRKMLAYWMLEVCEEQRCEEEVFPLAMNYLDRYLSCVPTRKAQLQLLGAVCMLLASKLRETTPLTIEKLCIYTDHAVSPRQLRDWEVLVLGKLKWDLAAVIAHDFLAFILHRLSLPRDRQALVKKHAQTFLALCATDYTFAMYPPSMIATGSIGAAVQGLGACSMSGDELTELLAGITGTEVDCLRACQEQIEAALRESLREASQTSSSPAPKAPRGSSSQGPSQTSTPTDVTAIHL
Protocol: as §1

[7] = target: CDK2A (Homo sapiens, UniProt P24941); test: In-house kinase assay (32P incorporation); format: biochemical; details: in-house kinase assays
Protocol: as §1

[8] = target: AurB (Homo sapiens, UniProt Q96GD4); test: In-house kinase assay (32P incorporation); format: biochemical; details: in-house kinase assays
Chain of AurB (Q96GD4 whole entry): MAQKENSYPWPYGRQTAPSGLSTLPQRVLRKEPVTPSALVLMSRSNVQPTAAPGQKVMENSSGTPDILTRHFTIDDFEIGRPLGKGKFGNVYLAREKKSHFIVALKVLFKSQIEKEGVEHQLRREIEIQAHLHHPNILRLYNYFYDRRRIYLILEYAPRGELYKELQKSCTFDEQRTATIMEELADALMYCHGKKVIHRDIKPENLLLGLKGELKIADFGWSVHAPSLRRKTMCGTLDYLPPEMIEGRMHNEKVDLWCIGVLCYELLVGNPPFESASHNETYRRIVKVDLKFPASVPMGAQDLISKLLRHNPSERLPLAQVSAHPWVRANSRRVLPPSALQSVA
Protocol: as §1

[9] = target: CDK2E (Homo sapiens, UniProt P24941); test: In-house kinase assay (32P incorporation); format: biochemical; details: in-house kinase assays
Protocol: as §1

[10] = target: CDK4D1 (Homo sapiens, UniProt P11802); test: In-house kinase assay (32P incorporation); format: biochemical; details: in-house kinase assays
Chain of CDK4D1 (P11802 whole entry): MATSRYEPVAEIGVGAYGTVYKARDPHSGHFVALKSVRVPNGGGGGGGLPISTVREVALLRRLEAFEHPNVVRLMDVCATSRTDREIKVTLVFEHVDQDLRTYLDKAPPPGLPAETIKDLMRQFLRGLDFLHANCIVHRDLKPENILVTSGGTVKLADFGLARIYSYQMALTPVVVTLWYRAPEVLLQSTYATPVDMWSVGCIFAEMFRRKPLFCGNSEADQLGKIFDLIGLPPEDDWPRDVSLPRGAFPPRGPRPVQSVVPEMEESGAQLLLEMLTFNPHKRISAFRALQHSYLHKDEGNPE
Chain of CDK4D1 (P24385 whole entry partner): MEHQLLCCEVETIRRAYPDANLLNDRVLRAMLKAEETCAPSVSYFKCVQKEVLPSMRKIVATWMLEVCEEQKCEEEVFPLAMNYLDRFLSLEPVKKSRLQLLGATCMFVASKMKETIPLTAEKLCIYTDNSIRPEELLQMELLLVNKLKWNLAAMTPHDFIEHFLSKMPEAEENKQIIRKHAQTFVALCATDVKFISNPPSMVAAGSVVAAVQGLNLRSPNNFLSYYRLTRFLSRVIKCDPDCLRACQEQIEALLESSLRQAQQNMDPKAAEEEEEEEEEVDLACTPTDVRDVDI
Protocol: as §1

[11] = target: CDK9/cyclin T1 (Homo sapiens, UniProt P50750); test: CDK 7 and 9 assay (CTD peptide substrate); format: biochemical; details: in-house kinase assays; read-out: Average IC50 CDK9T1
Chain of CDK9/cyclin T1 (P50750 whole entry): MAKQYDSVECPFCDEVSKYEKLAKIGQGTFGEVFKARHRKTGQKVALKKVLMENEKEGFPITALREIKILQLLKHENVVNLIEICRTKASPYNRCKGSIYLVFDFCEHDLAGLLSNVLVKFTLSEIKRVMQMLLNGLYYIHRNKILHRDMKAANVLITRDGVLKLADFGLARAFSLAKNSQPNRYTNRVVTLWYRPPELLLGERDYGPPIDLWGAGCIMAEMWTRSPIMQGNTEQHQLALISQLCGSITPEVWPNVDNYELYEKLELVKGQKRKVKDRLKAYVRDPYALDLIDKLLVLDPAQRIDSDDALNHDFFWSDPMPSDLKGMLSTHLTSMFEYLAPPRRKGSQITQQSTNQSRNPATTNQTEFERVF
Chain of CDK9/cyclin T1 (O60563 whole entry partner): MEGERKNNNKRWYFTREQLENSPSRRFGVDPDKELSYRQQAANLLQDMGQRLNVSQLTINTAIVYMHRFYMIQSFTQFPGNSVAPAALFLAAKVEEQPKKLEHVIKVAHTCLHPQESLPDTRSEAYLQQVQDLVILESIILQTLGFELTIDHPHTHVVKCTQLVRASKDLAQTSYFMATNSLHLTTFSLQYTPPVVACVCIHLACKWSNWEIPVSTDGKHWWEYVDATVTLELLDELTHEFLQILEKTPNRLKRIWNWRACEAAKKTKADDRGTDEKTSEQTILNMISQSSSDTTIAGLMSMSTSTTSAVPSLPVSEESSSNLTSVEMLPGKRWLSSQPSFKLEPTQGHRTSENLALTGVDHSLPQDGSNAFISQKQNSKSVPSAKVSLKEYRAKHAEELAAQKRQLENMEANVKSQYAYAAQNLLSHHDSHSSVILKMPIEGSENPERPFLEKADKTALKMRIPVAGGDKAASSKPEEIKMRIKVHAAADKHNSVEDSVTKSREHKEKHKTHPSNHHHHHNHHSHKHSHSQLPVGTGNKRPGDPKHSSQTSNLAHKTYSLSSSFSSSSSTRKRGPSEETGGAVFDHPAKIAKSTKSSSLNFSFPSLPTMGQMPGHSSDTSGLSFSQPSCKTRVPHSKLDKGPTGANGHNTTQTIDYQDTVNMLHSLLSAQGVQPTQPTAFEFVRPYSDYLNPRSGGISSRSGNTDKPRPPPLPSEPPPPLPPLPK
Protocol: as §1, §2

[12] = tested on: stimulated PBMCs; test: T cell proliferation assay (BrdU ELISA in stimulated PBMCs); format: cell-based
Protocol: PBMCs were seeded in 96 well plates at 1×10^5 cells/well, in 50 μL per well culture medium. […] All stimulants and compounds were made up to 4× final concentration in tissue culture medium and 25 μL of each drug and stimulant was then added to wells, for a final volume of 100 μL/well. For unstimulated controls, 25 μL tissue culture medium was added to wells instead of stimulant and for untreated cells, 25 μL/well tissue culture medium containing equal volume DMSO (0.1% final) was added. Three adjacent wells were treated for each stimulation/treatment condition and the mean value calculated for analysis.
In addition, PBMCs were stimulated with ConA (Concanavalin A, Sigma C5275) at concentrations ranging from 0.5 μg/mL to 100 μg/mL to identify its stimulatory effect and optimal concentration.
Cells were labelled with BrdU for two hours prior to harvesting. Plates were then centrifuged for 10 minutes at 300 g (RT), supernatant removed from wells by pipetting and cells dried for 1 hour at 60° C. FixDenat solution was added to plates (100 μL/well) and incubated for 30 minutes, then flicked to remove and anti-BrdU-POD solution added to plates (100 μL/well) and incubated for 90 minutes.

[13] = rounded IC50 value used for ease of calculation in PBMC assays, read-out: IC50 Used
[14] = Example 3, PHA stimulated PBMCs, compounds at IC50 to 4×IC50, 48 hours after stimulation
[15] = Example 3, PMA/I stimulated PBMCs, all concentrations
[16] = Example 4, PHA or ConA stimulated PBMCs, 0.25×IC50 to 4×IC50, 48 and 72 hours

Chain of CDK7/cyclin H (P50613 whole entry): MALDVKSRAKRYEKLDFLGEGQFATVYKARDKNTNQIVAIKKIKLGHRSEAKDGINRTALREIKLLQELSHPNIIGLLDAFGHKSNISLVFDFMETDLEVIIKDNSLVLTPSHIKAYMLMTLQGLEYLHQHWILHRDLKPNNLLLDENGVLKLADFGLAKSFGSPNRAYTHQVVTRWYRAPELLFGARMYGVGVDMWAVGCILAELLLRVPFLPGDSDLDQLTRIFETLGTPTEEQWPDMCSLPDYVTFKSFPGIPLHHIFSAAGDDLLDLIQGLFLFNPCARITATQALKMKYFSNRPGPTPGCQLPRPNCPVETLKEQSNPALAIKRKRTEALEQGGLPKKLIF
Chain of CDK7/cyclin H (P51946 whole entry partner): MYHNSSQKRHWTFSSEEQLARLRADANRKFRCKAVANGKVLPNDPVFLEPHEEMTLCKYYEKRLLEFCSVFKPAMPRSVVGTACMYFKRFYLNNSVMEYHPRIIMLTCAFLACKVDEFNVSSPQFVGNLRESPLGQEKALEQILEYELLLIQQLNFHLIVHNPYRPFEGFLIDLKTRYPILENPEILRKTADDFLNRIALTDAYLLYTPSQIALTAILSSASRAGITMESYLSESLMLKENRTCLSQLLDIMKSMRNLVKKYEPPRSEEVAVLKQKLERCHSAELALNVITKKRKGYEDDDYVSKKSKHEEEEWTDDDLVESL

IC50 [1] [µM] | IC50 [4] [µM] | IC50 [5] [µM] | IC50 [6] [µM] | IC50 [7] [µM] | IC50 [8] [µM] | IC50 [9] [µM] | IC50 [10] [µM] | IC50 [11] [µM] | Compound | IC50 ([2]; published for HCT116 cells, Raynaud et al. 2005, no in-house data, read-out: IC50 Average) [µM] | IC50 ([2]; rounded from published HCT116 IC50, used in PBMC assays, read-out: IC50 Used) [µM] | IC50 ([3]; 72 h, read-out: IC50 Average) [µM] | IC50 [3, 13] [µM] | Concentration reaching complete inhibition of proliferation activity ([12]; Example 4, PHA or ConA stimulated PBMCs) [×IC50] | BrdU incorporation [12, 14] | BrdU incorporation [12, 15] | BrdU incorporation [12, 16]
> 20 |  |  |  |  |  |  |  |  | Cn1cnc2c(NCc3ccccc3)nc(NCCO)nc21 [Compound 3] | 56 | 50 |  |  |  |  |  | 
27 | 15.9 | 0.051 | 1.94 | 1.24 | 0.023 | 0.931 | 2.75 | 2.71 | CC[C@@H](Nc1nc(NCc2cccnc2)c2ncn(C(C)C)c2n1)C(C)(C)O [Compound 5] |  |  | 1.43 | 1.5 |  |  |  | 
0.983 | 4.95 | > 10 | 6.27 | 0.223 | > 10 | 0.071 | 7.63 | 0.195 | Cc1c(-c2ccnc(Nc3ccc(N4CCNCC4)cc3)n2)sc(=O)n1C [Compound 7] |  |  | 5.31 | 5 | 0.25 |  |  | 
0.147 | 2 | 0.094 | 0.11 | 1.67 | 0.021 | 0.204 | 0.118 | 0.097 | CCNc1nc(C)c(-c2ccnc(Nc3ccc(CNC(C)=O)cc3)n2)s1 [Compound 9] |  |  | 0.25 | 0.25 |  | clearly concentration dependent | higher than in PHA stimulated cells | concentration dependency was clearly seen; also recorded: needed at higher concentrations than the other compounds
0.455 | 1.49 | > 10 | 6.4 | 0.115 | > 100 | 0.013 | 5.1 | 0.081 | CCNc1nc(C)c(-c2ccnc(Nc3ccc(S(C)(=O)=O)cc3)n2)s1 [Compound 10] |  |  | 0.753 | 1 |  | clearly concentration dependent | higher than in PHA stimulated cells | concentration dependency was clearly seen; also recorded: needed at higher concentrations than the other compounds
